Literature values, collected in patent EP2077109A1, “AMIDE COMPOUND, SALT THEREOF, AND BIOFILM REMOVER USING THEM” (The University of Tokyo, priority 2006, dated 2008).

System: autoinducer
Conditions: statement taken from Patent Document 1 (JP 2006-512290)

For CCCCCCCCCC(=O)CC(=O)NN1CCCCC1, the autoinducer agonist activity is listed as “exhibits autoinducer agonist activity”.
